Assay results reported in ChEMBL document CHEMBL1201862, “PubChem BioAssay data set” (2004).
Structures can show the parent of a compound that is named as a salt. Calls of active or inactive are those of the source.

Tests used:
[1] = molecular target: Glyceraldehyde-3-phosphate dehydrogenase (Homo sapiens, UniProt P04406)
[2] = molecular target: T1, Alkaline phosphatase, tissue-nonspecific isozyme (Homo sapiens, UniProt P05186); assay: potency against alkaline phosphatase TNAP – biochemical, luminescent, dose response, SAR follow-up (AID 1056)
T1 sequence (P05186 whole entry): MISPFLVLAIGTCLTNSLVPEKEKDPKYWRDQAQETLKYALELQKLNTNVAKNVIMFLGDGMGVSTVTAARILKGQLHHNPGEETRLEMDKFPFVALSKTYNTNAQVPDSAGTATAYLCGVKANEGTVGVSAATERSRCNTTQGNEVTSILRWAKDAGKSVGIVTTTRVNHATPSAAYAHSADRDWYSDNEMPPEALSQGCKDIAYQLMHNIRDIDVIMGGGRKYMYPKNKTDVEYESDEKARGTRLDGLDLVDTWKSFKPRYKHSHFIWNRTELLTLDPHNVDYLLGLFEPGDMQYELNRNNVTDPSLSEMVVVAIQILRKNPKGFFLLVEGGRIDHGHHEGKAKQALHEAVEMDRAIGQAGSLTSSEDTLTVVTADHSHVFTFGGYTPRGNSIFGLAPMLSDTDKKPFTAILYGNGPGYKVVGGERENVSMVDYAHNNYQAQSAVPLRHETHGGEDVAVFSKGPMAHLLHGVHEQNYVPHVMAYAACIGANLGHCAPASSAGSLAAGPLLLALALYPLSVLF

[3] = molecular target: Cytochrome P450 3A4 (Homo sapiens, UniProt P08684);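 also: CYP3A4 tested as one member of a cytochrome P450 panel screen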
Chain of Cytochrome P450 3A4 (P08684 whole entry): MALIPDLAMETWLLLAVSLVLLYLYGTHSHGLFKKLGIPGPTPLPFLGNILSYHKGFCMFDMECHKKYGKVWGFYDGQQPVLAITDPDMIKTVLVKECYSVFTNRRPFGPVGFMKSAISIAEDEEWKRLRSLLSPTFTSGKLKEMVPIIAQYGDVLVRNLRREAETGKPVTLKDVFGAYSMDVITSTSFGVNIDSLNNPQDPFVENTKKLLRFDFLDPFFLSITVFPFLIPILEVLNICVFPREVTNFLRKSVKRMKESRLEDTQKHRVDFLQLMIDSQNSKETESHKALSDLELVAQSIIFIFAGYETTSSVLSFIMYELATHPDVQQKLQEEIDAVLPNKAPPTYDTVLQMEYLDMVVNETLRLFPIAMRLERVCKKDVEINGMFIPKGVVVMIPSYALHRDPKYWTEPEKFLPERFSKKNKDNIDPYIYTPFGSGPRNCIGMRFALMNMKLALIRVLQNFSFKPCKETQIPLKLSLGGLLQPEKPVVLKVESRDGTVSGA

[4] = molecular target: T2, Cytochrome P450 1A2 (Homo sapiens, UniProt P05177);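 also: PubChem cytochrome P450 panel assay, CYP1A2 panel member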
T2 sequence (P05177 whole entry): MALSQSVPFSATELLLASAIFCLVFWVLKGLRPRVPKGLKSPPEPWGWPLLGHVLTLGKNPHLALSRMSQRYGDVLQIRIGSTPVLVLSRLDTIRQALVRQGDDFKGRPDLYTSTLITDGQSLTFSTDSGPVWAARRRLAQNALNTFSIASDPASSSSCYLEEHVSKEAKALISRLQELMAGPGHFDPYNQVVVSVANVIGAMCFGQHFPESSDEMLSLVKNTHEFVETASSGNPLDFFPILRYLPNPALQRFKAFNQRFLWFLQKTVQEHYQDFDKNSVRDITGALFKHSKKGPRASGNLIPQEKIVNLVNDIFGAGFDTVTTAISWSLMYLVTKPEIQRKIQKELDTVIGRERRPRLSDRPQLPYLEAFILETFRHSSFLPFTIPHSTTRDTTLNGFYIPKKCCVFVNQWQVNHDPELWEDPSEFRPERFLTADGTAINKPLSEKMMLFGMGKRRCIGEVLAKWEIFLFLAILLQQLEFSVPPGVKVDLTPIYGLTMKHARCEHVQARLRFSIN

[5] = THP-1 cell cytotoxicity, dose response, cytotoxicity control for non-replicating M. tuberculosis project (AID 489025); format: functional
[6] = cells; format: functional
[7] = Vero E6 cell cytotoxicity, dose response, cytotoxicity control for non-replicating M. tuberculosis project, secondary assay (AID 492998); format: functional, VeroE6; conditions: Vero C1008
[8] = microbe, parasite or virus in culture; format: functional; conditions: Mycobacterium tuberculosis
[9] = NIH3T3 cell viability loss – ATP luminescence, mouse fibroblasts, counter-screen, dose response (AID 2010); format: functional, cell-based;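 also: cells exposed to compound for about 90 hours before reading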
[10] = Trypanosoma cruzi growth suppression in host cells – NIH3T3 host cells, beta-gal luminescence, confirmation (AID 2044); format: functional, cell-based;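 also: intracellular parasites grown in NIH/3T3 mouse fibroblasts as host cells; luminescent beta-galactosidase reporter signal from transgenic T. cruzi replicating inside host cells; inhibitors lower the luminescence signal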
[11] = molecular target: T3, Carboxy-terminal domain RNA polymerase II polypeptide A small phosphatase 1 (Homo sapiens, UniProt Q9GZU7); assay: CTDSP1 inhibitors, concentration-response, biochemical, absorbance readout, ultra-high-throughput screen actives (AID 540297); format: functional
T3 sequence (Q9GZU7 whole entry): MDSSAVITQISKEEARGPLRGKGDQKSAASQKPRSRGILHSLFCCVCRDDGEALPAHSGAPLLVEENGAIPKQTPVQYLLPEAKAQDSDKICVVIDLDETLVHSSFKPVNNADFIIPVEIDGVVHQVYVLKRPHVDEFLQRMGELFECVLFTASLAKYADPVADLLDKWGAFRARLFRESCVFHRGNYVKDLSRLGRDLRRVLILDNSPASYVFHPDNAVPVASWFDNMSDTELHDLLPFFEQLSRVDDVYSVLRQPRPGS

[12] = test system: Vero; assay: cells; format: functional; conditions: Chlorocebus sabaeus
[13] = DRD fibroblast viability loss – cell-based, non-viral oncogenic, luminescence, dose response (AID 1934); format: functional; conditions: Homo sapiens
[14] = test system: HEK293; assay: inhibition of NOD1-driven NF-kB reporter – cell-based, luminescence, uHTS, primary screen (AID 1578); format: functional; conditions: Homo sapiens
[15] = test system: BJ; assay: BJ-TERT-LT-ST fibroblast viability loss – cell-based, RAS-independent, luminescence, dose response (AID 1935); format: functional; conditions: Homo sapiens;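 also: BJ fibroblasts immortalized with TERT plus LT and ST oncogenes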
[16] = molecular target: Nucleotide-binding oligomerization domain-containing protein 2 (Homo sapiens, UniProt Q9HC29); assay: inhibition of NOD2-driven NF-kB reporter – cell-based, luminescence, uHTS, HEK293 (AID 1566); format: functional
Chain of Nucleotide-binding oligomerization domain-containing protein 2 (Q9HC29 whole entry, the tested form may be a part): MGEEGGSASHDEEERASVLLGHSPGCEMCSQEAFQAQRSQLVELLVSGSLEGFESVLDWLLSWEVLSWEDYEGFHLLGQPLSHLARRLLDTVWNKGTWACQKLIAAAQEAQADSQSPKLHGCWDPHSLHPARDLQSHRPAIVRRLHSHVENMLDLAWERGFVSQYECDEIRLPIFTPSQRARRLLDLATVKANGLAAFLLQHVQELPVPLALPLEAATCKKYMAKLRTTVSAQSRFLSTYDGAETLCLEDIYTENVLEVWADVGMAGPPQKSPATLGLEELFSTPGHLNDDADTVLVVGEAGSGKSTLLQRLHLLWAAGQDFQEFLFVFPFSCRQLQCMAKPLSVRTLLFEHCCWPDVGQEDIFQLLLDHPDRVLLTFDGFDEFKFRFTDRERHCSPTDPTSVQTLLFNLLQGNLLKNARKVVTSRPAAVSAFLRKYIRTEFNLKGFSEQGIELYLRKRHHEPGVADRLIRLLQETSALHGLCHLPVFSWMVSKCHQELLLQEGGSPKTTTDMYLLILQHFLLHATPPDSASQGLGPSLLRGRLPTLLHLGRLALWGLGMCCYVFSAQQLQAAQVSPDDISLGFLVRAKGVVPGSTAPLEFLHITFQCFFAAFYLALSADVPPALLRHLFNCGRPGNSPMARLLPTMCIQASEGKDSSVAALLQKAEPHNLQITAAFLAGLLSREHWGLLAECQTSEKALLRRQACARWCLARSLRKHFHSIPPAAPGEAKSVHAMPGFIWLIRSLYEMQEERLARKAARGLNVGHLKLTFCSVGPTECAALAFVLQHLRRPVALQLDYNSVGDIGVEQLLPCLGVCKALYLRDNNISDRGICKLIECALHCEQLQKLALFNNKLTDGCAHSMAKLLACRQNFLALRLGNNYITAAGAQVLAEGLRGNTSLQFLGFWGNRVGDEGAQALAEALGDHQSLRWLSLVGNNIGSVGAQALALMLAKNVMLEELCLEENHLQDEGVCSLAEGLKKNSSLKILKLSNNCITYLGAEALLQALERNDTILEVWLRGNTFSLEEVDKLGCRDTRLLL

[17] = test system: HEK293; assay: cells; format: functional, cell-based; conditions: Homo sapiens
[18] = test system: HEK293; assay: cells; format: functional, cell-based; conditions: Homo sapiens; remark: listed apart in the source
[19] = test system: HEK293; assay: cells; format: functional, cell-based; conditions: Homo sapiens; remark: listed apart in the source
[20] = test system: BJ; assay: BJ-TERT fibroblast viability loss – cell-based, RAS-independent, luminescence, dose response (AID 1933); format: functional; conditions: Homo sapiens
[21] = test system: HEK293; assay: NOD2 signaling inhibitors in MDP-stimulated cells, cell-based, uHTS, luminescence (AID 2001); format: functional; conditions: Homo sapiens
[22] = test system: BJ; assay: cells; format: functional, cell-based; conditions: Homo sapiens
[23] = molecular target: DNA dC->dU-editing enzyme APOBEC-3A (Homo sapiens, UniProt P31941); assay: Dose Response confirmation of small molecule APOBEC3A DNA Deaminase Inhibitors via a fluorescence-based single-stranded DNA deaminase assay. [Related pubchem assays (depositor defined):AID493011, AID493024]; format: functional
Chain of DNA dC->dU-editing enzyme APOBEC-3A (P31941 whole entry): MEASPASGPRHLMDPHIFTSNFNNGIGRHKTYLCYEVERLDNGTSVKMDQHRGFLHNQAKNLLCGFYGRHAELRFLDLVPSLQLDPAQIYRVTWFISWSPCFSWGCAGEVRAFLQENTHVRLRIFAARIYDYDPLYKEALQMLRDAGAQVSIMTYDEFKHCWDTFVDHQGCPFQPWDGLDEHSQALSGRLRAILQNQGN

[24] = molecular target: DNA dC->dU-editing enzyme APOBEC-3G (Homo sapiens, UniProt Q9HC16); format: functional;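 also: Dose-response counterscreen measuring inhibition of APOBEC3G DNA deaminase activity, run while confirming APOBEC3A inhibitors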
Chain of DNA dC->dU-editing enzyme APOBEC-3G (Q9HC16 whole entry): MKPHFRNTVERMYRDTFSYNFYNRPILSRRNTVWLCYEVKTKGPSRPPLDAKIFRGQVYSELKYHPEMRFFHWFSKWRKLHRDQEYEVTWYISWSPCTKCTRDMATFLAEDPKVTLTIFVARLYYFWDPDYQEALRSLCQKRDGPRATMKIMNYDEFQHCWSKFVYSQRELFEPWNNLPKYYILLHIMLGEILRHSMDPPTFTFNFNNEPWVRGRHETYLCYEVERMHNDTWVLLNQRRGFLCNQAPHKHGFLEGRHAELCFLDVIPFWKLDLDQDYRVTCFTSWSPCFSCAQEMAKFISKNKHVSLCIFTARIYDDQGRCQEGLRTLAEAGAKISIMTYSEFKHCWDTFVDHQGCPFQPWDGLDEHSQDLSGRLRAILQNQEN

[25] = molecular target: T4, Coagulation factor XII (Homo sapiens, UniProt P00748); format: functional;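 also: activated factor XIIa alpha cleaving a fluorogenic AMC peptide substrate; inhibitor potency from loss of enzyme activity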
T4 sequence (P00748 whole entry): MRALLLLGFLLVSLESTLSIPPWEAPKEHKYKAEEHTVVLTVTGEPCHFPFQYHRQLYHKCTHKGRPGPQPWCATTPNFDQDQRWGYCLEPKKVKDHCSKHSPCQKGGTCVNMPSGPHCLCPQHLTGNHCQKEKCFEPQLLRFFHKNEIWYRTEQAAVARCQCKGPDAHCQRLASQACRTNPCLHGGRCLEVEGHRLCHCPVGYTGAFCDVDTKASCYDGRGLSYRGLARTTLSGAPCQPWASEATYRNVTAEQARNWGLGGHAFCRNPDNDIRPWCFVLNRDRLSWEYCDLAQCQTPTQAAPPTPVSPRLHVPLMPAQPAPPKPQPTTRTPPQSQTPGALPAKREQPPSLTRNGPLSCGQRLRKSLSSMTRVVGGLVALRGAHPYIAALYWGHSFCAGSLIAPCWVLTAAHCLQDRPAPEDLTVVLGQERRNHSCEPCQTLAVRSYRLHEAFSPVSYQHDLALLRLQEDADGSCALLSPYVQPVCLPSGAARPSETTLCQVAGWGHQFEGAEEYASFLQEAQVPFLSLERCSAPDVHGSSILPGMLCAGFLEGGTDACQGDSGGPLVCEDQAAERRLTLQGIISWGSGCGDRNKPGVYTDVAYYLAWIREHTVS

[26] = test system: INS1; assay: INS-1E survival protection against cytokine death – cell-based, luminescence, retest, dose response (AID 449756); format: functional; conditions: Rattus norvegicus;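 also: cell death triggered by IL-1 beta plus TNF-alpha plus IFN-gamma mixture; protective hits raise ATP signal compared with cytokine alone wells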

Chain of Glyceraldehyde-3-phosphate dehydrogenase (P04406 whole entry): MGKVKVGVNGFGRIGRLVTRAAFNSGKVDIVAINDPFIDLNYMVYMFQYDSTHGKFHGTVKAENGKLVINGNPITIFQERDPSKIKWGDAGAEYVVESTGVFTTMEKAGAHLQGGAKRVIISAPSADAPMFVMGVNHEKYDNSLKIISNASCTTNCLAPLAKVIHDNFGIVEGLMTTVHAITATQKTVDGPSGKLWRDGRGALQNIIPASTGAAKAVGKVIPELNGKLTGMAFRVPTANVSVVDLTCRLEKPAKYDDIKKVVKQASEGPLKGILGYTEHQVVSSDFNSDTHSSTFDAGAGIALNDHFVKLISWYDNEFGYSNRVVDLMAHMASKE

In the case of `COc1ccc(S(=O)(=O)Nc2ccc3ccccc3c2)cc1OC`, the IC50 [1] is reported as > 100 µM (not active) and the IC50 [2] is reported as > 100 µM (inactive).
In the case of `O=c1c(-c2ccc(Cl)cc2)nc2cnc(N3CCOCC3)nc2n1CCc1ccccc1`, the AC50 [3] is reported as “inconclusive” and the AC50 [4] is reported as 2 µM (inconclusive).
For `CCCCn1c(=O)c(C(=O)Nc2ncccc2C)c(O)c2ccccc21`, the CC50 [5] was > 40 µM (active), the IC50 [6] was 17.3 µM (active) and the CC50 [7] was > 20 µM (active). The CC50 [8] was 29.3 µM (active).
In the case of `Cc1cc(C(=O)N/N=C/c2ccc(-c3ccccc3Cl)o2)[nH]n1`, the EC50 [9] is reported as > 60 µM (not active), the EC50 [10] is reported as 1.5 µM (active) and the IC50 [11] is reported as 11.5 µM (active).
In the case of `COc1cc(/C=C/c2ccc3cccc(O)c3n2)cc(Cl)c1OC`, the CC50 [12] is reported as 11.6 µM (active), the EC50 [13] is reported as 19.1 µM (active) and the EC50 [14] is reported as 3.66 µM (active). The EC50 [15] was > 150 µM (not active), the EC50 [16] was > 20 µM (inactive) and the IC50 [17] was > 20 µM (inactive). For the same compound, the IC50 [18] was > 20 µM (inactive), the IC50 [19] was 9.42 µM (active) and the EC50 [20] was 23.4 µM (active). For the same compound, the IC50 [21] was 4.22 µM (inactive) and the EC50 [22] was 44.9 µM (active).
With `O=C(Nc1ccccc1)N1CCC2(CC1)CCN(C(=O)c1cccc(F)c1)CC2` the AC50 [3] was “inconclusive” and the AC50 [4] was 10 µM (inconclusive).
With `COc1ccc(CN2CCNCC2)c(OC)c1OC` [TRIMETAZIDINE DIHYDROCHLORIDE] the IC50 [23] was 8.26 µM (active), the IC50 [24] was 7.19 µM (active) and the IC50 [11] was 8.85 µM (active).
For `COc1ccc2c(c1)CCc1c(C(=O)NCc3ccc(F)cc3)noc1-2`, the IC50 [25] was 3.61 µM (active).
In the case of `COC(=O)c1ccc(Nc2nc(C)cc(=O)[nH]2)cc1`, the IC50 [25] is reported as > 50 µM (inactive).
With `COc1ccc(C2=Nn3c(nnc3-c3ccccc3Cl)SC2)cc1OC1CCCC1` the CC50 [12] was 10.7 µM (active) and the AC50 [26] was 42.7 µM (active).
